Experimental data from ChEMBL document CHEMBL5236646, “Design, synthesis, and biological evaluation of BRD4 degraders” (Bioorg Med Chem, 2023).
pIC50: −log10 of the molar value. Active and inactive are the calls of the source. The rule behind the calls is not given here.

Columns and labels:
[1] = molecular target: T1, Protein cereblon/Bromodomain-containing protein 4 (Homo sapiens) (UniProt O60885+Q96SW2); assay: Protac activity at CRBN/BRD4 in human MM1.S cells assessed as downregulation of MYC protein expression at 300 nM measured after 3 hrs by Western blot analysis; format: cell-based
T1 sequence (Q96SW2 whole entry, looked up, other chains not shown): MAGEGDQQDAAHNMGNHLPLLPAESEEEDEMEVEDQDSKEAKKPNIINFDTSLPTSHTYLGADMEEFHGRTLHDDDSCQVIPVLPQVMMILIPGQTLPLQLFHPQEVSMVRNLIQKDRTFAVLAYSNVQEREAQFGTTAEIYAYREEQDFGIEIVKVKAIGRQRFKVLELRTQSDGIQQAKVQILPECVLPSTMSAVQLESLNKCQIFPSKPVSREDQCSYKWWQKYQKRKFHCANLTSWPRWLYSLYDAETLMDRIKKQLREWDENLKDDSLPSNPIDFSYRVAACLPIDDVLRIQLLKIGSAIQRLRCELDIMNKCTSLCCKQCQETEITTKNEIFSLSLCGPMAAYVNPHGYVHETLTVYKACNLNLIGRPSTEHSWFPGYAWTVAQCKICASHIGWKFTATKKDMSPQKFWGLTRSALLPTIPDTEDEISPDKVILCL

[2] = molecular target: T1, Protein cereblon/Bromodomain-containing protein 4 (Homo sapiens); assay: Protac activity at CRBN/BRD4 in human MM1.S cells assessed as induction of BRD4 protein degradation by measuring residual activity at 0.03 uM incubated for 3 hrs by Western blot analysis relative to control; format: cell-based
[3] = molecular target: T1, Protein cereblon/Bromodomain-containing protein 4 (Homo sapiens); assay: Protac activity at CRBN/BRD4 in human MV4-11 cells assessed as induction of BRD4 protein degradation by measuring residual activity at 0.009 uM incubated for 3 hrs by Western blot analysis relative to control; format: cell-based
[4] = molecular target: T1, Protein cereblon/Bromodomain-containing protein 4 (Homo sapiens); assay: Protac activity at CRBN/BRD4 in human MM1.S cells assessed as downregulation of MYC protein expression at […] incubated for 3 hrs by Western blot analysis; format: cell-based
[5] = molecular target: T1, Protein cereblon/Bromodomain-containing protein 4 (Homo sapiens); assay: Protac activity at CRBN/BRD4 in human MM1.S cells assessed as induction of BRD4 protein degradation by measuring residual activity at 1000 nM measured after 6 hrs by Western blot analysis (reference value: 100%); format: cell-based
[6] = molecular target: T1, Protein cereblon/Bromodomain-containing protein 4 (Homo sapiens); assay: Protac activity at CRBN/BRD4 in human MM1.S cells assessed as induction of BRD4 protein degradation by measuring residual activity at 300 nM measured after 1 hr by Western blot analysis (reference value: 317%); format: cell-based
[7] = molecular target: T1, Protein cereblon/Bromodomain-containing protein 4 (Homo sapiens); assay: Protac activity at CRBN/BRD4 in human MV4-11 cells assessed as induction of BRD4 protein degradation by measuring residual activity at 30 nM measured after 9 hrs by Western blot analysis (reference value: 100%); format: cell-based
[8] = molecular target: T1, Protein cereblon/Bromodomain-containing protein 4 (Homo sapiens); assay: Protac activity at CRBN/BRD4 in human MV4-11 cells assessed as induction of BRD4 protein degradation by measuring residual activity at 3 nM measured after 6 hrs by Western blot analysis (reference value: 100%); format: cell-based
[9] = molecular target: T1, Protein cereblon/Bromodomain-containing protein 4 (Homo sapiens); assay: Protac activity at CRBN/BRD4 in human MM1.S cells assessed as induction of BRD4 protein degradation by measuring residual activity at 0.09 uM incubated for 3 hrs by Western blot analysis relative to control; format: cell-based
[10] = molecular target: T1, Protein cereblon/Bromodomain-containing protein 4 (Homo sapiens); assay: Protac activity at CRBN/BRD4 in human MV4-11 cells assessed as induction of BRD4 protein degradation by measuring residual activity at 0.003 uM incubated for 3 hrs by Western blot analysis relative to control; format: cell-based
[11] = molecular target: T1, Protein cereblon/Bromodomain-containing protein 4 (Homo sapiens); assay: Protac activity at CRBN/BRD4 in human MM1.S cells assessed as induction of BRD4 protein degradation by measuring residual activity at 0.01 uM incubated for 3 hrs by Western blot analysis relative to control; format: cell-based
[12] = molecular target: T1, Protein cereblon/Bromodomain-containing protein 4 (Homo sapiens); assay: Protac activity at CRBN/BRD4 in human MM1.S cells assessed as induction of BRD4 protein degradation by measuring residual activity at 300 nM measured after 6 hrs by Western blot analysis (reference value: 317%); format: cell-based
[13] = molecular target: T1, Protein cereblon/Bromodomain-containing protein 4 (Homo sapiens); assay: Protac activity at CRBN/BRD4 in human MV4-11 cells assessed as induction of BRD4 protein degradation by measuring residual activity at 100 nM measured after 6 hrs by Western blot analysis (reference value: 100%); format: cell-based
[14] = molecular target: T1, Protein cereblon/Bromodomain-containing protein 4 (Homo sapiens); assay: Protac activity at CRBN/BRD4 in human MV4-11 cells assessed as induction of BRD4 protein degradation by measuring residual activity at 0.001 uM incubated for 3 hrs by Western blot analysis relative to control; format: cell-based
[15] = molecular target: T1, Protein cereblon/Bromodomain-containing protein 4 (Homo sapiens); assay: Protac activity at CRBN/BRD4 in human MM1.S cells assessed as induction of BRD4 protein degradation by measuring residual activity at 10 nM measured after 6 hrs by Western blot analysis (reference value: 100%); format: cell-based
[16] = molecular target: T1, Protein cereblon/Bromodomain-containing protein 4 (Homo sapiens); assay: Protac activity at CRBN/BRD4 in human MM1.S cells assessed as induction of BRD4 protein degradation by measuring residual activity at 300 nM measured after 3 hrs by Western blot analysis (reference value: 317%); format: cell-based
[17] = molecular target: T1, Protein cereblon/Bromodomain-containing protein 4 (Homo sapiens); assay: Protac activity at CRBN/BRD4 in human MM1.S cells assessed as induction of BRD4 protein degradation by measuring residual activity at 30 nM measured after 6 hrs by Western blot analysis (reference value: 100%); format: cell-based
[18] = Inhibition of TGF-beta induced activation of human MRC5 cells assessed as residual BRD4 protein level at 10 uM by Western blot analysis (reference value: 100%); format: functional
[19] = molecular target: T1, Protein cereblon/Bromodomain-containing protein 4 (Homo sapiens); assay: Protac activity at CRBN/BRD4 in human MV4-11 cells assessed as induction of BRD4 protein degradation by measuring residual activity at 30 nM preincubated with tert-butyl (S)-2-(4-(4-chlorophenyl)-2,3,9-trimethyl-6H-thieno[3,2-f][1,2,4]triazolo[4,3-a][1,4]diazepin-6-yl)acetate for 2 hrs followed by compound addition and measured after 6 hrs by Western blot analysis (reference value: 100%); format: cell-based
[20] = molecular target: T1, Protein cereblon/Bromodomain-containing protein 4 (Homo sapiens); assay: Protac activity at CRBN/BRD4 in human MM1.S cells assessed as induction of BRD4 protein degradation by measuring residual activity at 300 nM preincubated with lenalidomide for 2 hrs followed by compound addition and measured after 6 hrs by Western blot analysis (reference value: 100%); format: cell-based
[21] = molecular target: T1, Protein cereblon/Bromodomain-containing protein 4 (Homo sapiens); assay: Protac activity at CRBN/BRD4 in human MM1.S cells assessed as induction of BRD4 protein degradation by measuring residual activity at 100 nM measured after 6 hrs by Western blot analysis (reference value: 100%); format: cell-based
[22] = molecular target: T1, Protein cereblon/Bromodomain-containing protein 4 (Homo sapiens); assay: Protac activity at CRBN/BRD4 in human MM1.S cells assessed as induction of BRD4 protein degradation by measuring residual activity at 300 nM measured after 6 hrs by Western blot analysis (reference value: 100%); format: cell-based
[23] = system: MV4-11; assay: Antiproliferative activity against human […] cells assessed as inhibition of cell growth incubated for 72 hrs MTS assay; format: functional, cell-based; conditions: MV4-11, 72 h
[24] = molecular target: T1, Protein cereblon/Bromodomain-containing protein 4 (Homo sapiens); assay: Protac activity at CRBN/BRD4 in human MV4-11 cells assessed as induction of BRD4 protein degradation by measuring residual activity at 30 nM measured after 1 hr by Western blot analysis (reference value: 100%); format: cell-based
[25] = molecular target: T1, Protein cereblon/Bromodomain-containing protein 4 (Homo sapiens); assay: Protac activity at CRBN/BRD4 in human MV4-11 cells assessed as downregulation of MYC protein expression at 30 uM incubated for 3 hrs by Western blot analysis; format: cell-based
[26] = molecular target: T1, Protein cereblon/Bromodomain-containing protein 4 (Homo sapiens); assay: Protac activity at CRBN/BRD4 in human MV4-11 cells assessed as induction of BRD4 protein degradation by measuring residual activity at 30 nM measured after 6 hrs by Western blot analysis (reference value: 100%); format: cell-based
[27] = molecular target: T1, Protein cereblon/Bromodomain-containing protein 4 (Homo sapiens); assay: Protac activity at CRBN/BRD4 in human MV4-11 cells assessed as induction of BRD4 protein degradation by measuring residual activity at 30 nM measured immediately by Western blot analysis (reference value: 100%); format: cell-based
[28] = system: MRC5; assay: Inhibition of TGF-beta induced activation of human MRC5 cells assessed as downregulation of COL-1 protein expression at 0.1 to 10 uM by Western blot analysis; format: functional, cell-based; conditions: dose 0.1-10 µM
[29] = molecular target: T1, Protein cereblon/Bromodomain-containing protein 4 (Homo sapiens); assay: Protac activity at CRBN/BRD4 in human MV4-11 cells assessed as induction of BRD4 protein degradation by measuring residual activity at 10 nM measured after 6 hrs by Western blot analysis (reference value: 100%); format: cell-based

Cc1sc2c(c1C)C(c1ccc(Cl)cc1)=N[C@@H](CC(=O)NCCCCC(=O)NCCNc1cccc3c1C(=O)N(C1CCC(=O)NC1=O)C3=O)c1nnc(C)n1-2 (some centres undefined)
Activity [1]: Active
Activity [2]: 81%
Activity [3]: 62%
Activity [4]: inactive
Activity [5]: 10%
Activity [6]: 129%
Activity [7]: 49%
Activity [8]: 80%
Activity [9]: 70%
Activity [10]: 66%
Activity [11]: 93%
Activity [12]: 18%
Activity [13]: 28%
Activity [14]: 100%
Activity [15]: 62%
Activity [16]: 66%
Activity [17]: 42%
Activity [18]: 25%
Activity [19]: 84%
Activity [20]: 67%
Activity [21]: 24%
Activity [22]: 17%
pIC50 [23]: 8.52
Activity [24]: 62%
Activity [25]: Active
Activity [26]: 13%
Activity [27]: 110%
inhibition [28]: Active
Activity [29]: 41%
